ChEMBL document CHEMBL1157539, “Thousands of chemical starting points for antimalarial lead identification” (Nature, 2010)

Tested on: Plasmodium falciparum
Experiment: GSK_TCMDC: Inhibition of Plasmodium falciparum 3D7 in whole erythrocytes, using parasite LDH activity as an index of growth.
Assay type: functional, organism-based
Conditions: Plasmodium falciparum, 3D7

SMILES: COc1ccc2nccc(N/N=C/c3ccccc3[N+](=O)[O-])c2c1
- XC50: 65.9 nM

SMILES: CCOc1ccc2nc(C)cc(N/N=C/c3ccccc3[N+](=O)[O-])c2c1
- XC50: 29.6 nM

SMILES: COc1ccc2nc(C)cc(N/N=C/c3ccccc3[N+](=O)[O-])c2c1
- XC50: 177 nM

SMILES: COc1cc(C(=O)NCCCN2CCN(c3cccc(Cl)c3)CC2)ccc1-c1nc2cc(Cl)c(F)cc2[nH]1
- XC50: 1020 nM

SMILES: COc1cc(C)nc2ccc(NC(=O)c3cc([N+](=O)[O-])cc([N+](=O)[O-])c3)cc12
- XC50: 385 nM

SMILES: Cc1cc(NC(=O)c2ccc(S(=O)(=O)N(Cc3ccccc3)C(C)C)cc2)no1
- XC50: 847 nM

SMILES: CN(CC(=O)Nc1cc(C(F)(F)F)ccc1-n1cncn1)Cc1ccc2ccccc2c1
- XC50: 232 nM

SMILES: NCC1CCCN1Cc1cccc(-c2ccc(-c3nc4cc(C(F)(F)F)ccc4[nH]3)s2)c1 (stereo not drawn)
- XC50: 748 nM

SMILES: COc1ccc2c(=NN=Cc3ccc(F)cc3)cc(C)[nH]c2c1
- XC50: 773 nM

SMILES: COC(=O)c1ccc(CC(C)NCC(O)c2cccc(Oc3cccc(C(F)(F)F)c3)c2)cc1 (stereo not drawn)
- XC50: 1170 nM

SMILES: CC(C)(C)OC(=O)N1CCN(c2ccccc2NC(=O)c2cccc(C(F)(F)F)c2Oc2ccc(F)cc2)CC1
- XC50: 857 nM

SMILES: Cc1cc(N[C@@H](Cc2ccccc2)C(=O)NCc2cccs2)nc(NCCc2cccnc2)n1
- XC50: 1010 nM

SMILES: CCCCN(CCCC)Cc1cc2ccccc2cc1O
- XC50: 348 nM

SMILES: CCC1(CC)CN(c2ccccc2)c2ccc(O)cc2S(=O)(=O)C1CC(C)C (stereo not drawn)
- XC50: 402 nM

SMILES: COc1cc(C=NNc2ccnc3cc(Cl)ccc23)ccc1O
- XC50: 134 nM

SMILES: OCc1ccc(-c2cncc(Nc3ccc(F)c(Cl)c3)c2)cc1
- XC50: 88.5 nM

SMILES: O=C(NCC1CCN(Cc2cccc(F)c2)C1)c1cc(-c2cccc(C(F)(F)F)c2)cs1 (stereo not drawn)
- XC50: 992 nM

SMILES: Cc1ccccc1C1CCN(c2ccc(NC(=O)c3ccc(Cl)nc3)cc2)CC1
- XC50: 1030 nM

SMILES: O=C(Nc1ccc(Cl)cc1)c1ccc(CN2CCCN(Cc3ccsc3)CC2)cc1
- XC50: 862 nM

SMILES: CC(C)(C)C1CCc2nc(N)nc(N)c2C1 (stereo not drawn)
- XC50: 12.6 nM

SMILES: CC(=O)Nc1cccc(NC(=O)CSc2ccc(-c3nc4ccccc4[nH]3)cn2)c1
- XC50: 559 nM

SMILES: Cc1cccc(CN2CCC(Oc3ccc(NC(=O)c4cccs4)cc3Cl)CC2)n1
- XC50: 844 nM

SMILES: CN1C(=O)OC[C@@H]1Cc1ccc2[nH]cc(C3=CCN(Cc4ccccc4)CC3)c2c1
- XC50: 417 nM

SMILES: CN(C)c1ccc(/N=C2/N/C(=N/c3ccc(N(C)C)cc3)c3ccccc32)cc1
- XC50: 848 nM

SMILES: Cn1cncc1C(=O)Nc1ccc(-c2ccc(-c3nc4cc(C(F)(F)F)ccc4[nH]3)cc2)cc1
- XC50: 560 nM

SMILES: COc1cc(C2Nc3ccc4ccccc4c3C3=C2C(=O)CC(C)(C)C3)ccc1Oc1ccc([N+](=O)[O-])cc1C#N (stereo not drawn)
- XC50: 662 nM

SMILES: CC(Cc1ccc(C2=CCNCC2)cc1)NCC(O)c1cccc(C(F)(F)F)c1 (stereo not drawn)
- XC50: 1570 nM

SMILES: CCCOc1cc2c(cc1OCCC)C(C=Cc1ccc(Cl)cc1Cl)=NC(C)C2 (stereo not drawn)
- XC50: 370 nM

SMILES: Nc1ccc2nc(C=Cc3ccccc3)[nH]c2c1
- XC50: 749 nM

SMILES: O=C(CCc1c[nH]cn1)Nc1ccc(-c2ccc(-c3nc4ccccc4[nH]3)cc2)cc1
- XC50: 705 nM

SMILES: CC(CON1C(N)=NC(N)=NC1(C)C)Cc1ccc(Cl)cc1Cl (stereo not drawn)
- XC50: 3.2 nM

SMILES: CCc1cn2c3c(cc(C(=O)N[C@@H](Cc4ccccc4)[C@H](O)CNCc4cccc(C)c4)cc13)N(C)S(=O)(=O)CC2
- XC50: 246 nM

SMILES: Cc1ccc(CN(Cc2ccc(C(=O)N(C)C)cc2)Cc2ccc3c(c2)OCCO3)cc1C
- XC50: 804 nM

SMILES: Cc1cccn2c(=O)c3cc(C(=O)NC(C)c4ccccc4)c(=N)n(CCc4ccccc4)c3nc12 (stereo not drawn)
- XC50: 554 nM

SMILES: CN(C)CCNCc1cccc(-c2ccc3c(Nc4ccc(Oc5ccccc5)cc4)ccnc3c2)c1
- XC50: 441 nM

SMILES: O=C(CNC1=NCCN1)Nc1ccc(NC(=O)Nc2ccc(NC(=O)CNC3=NCCN3)cc2)cc1
- XC50: 781 nM

SMILES: OC(CNC1CCCCCCC1)c1ccc(Cl)c(Cl)c1 (stereo not drawn)
- XC50: 205 nM

SMILES: CCN(CCCN1CCCCC1)c1cc(C)nc(Nc2ccc(C)c(Br)c2)n1
- XC50: 248 nM

SMILES: O=C(Nc1ccccc1Cl)N(Cc1cc(Cl)cc(Cl)c1)CC(O)COc1ccc(Cl)c(F)c1 (stereo not drawn)
- XC50: 788 nM

SMILES: COc1cccc2c(O)c(CNC3CCCCC3)ccc12
- XC50: 630 nM

SMILES: O=[N+]([O-])c1cccc(CNC2CCN(Cc3ccc4ccccc4c3)CC2)c1
- XC50: 764 nM

SMILES: COc1ccc(N2CCN(CCCCNCc3ccc(NC(=O)c4cc(Cl)cc(Cl)c4)cc3)CC2)c(OC)c1
- XC50: 253 nM

SMILES: Fc1ccc2[nH]c(-c3cccc(-c4ccc(CNCCc5ccncc5)cc4)c3)nc2c1
- XC50: 115 nM

SMILES: CCOc1ccc(-c2nonc2NC(=O)c2ccccc2)cc1OCC
- XC50: 257 nM

SMILES: CCN(CC)CCCC(C)Nc1c2ccc(Cl)cc2nc2ccc(OC)cc12 (stereo not drawn)
- XC50: 44.1 nM

SMILES: CCN1CCC(NCc2ccc(-c3ccc(Cl)s3)cc2)CC1
- XC50: 939 nM

SMILES: Cc1n[nH]c2ccc(-c3cc(OC[C@@H](N)Cc4ccccc4)cnc3-c3ccccc3OCc3cccc(F)c3)cc12
- XC50: 1220 nM

SMILES: c1ccc(Oc2ccc(Nc3ccnc(Nc4ccc(OCCN5CCCCC5)cc4)n3)cc2)cc1
- XC50: 604 nM

SMILES: OC1CCCN(Cc2ccc(-c3ccc(-c4nc5ccccc5[nH]4)cc3)cc2)C1 (stereo not drawn)
- XC50: 838 nM

SMILES: O=C(Nc1cc(C(F)(F)F)ccc1N1CCOCC1)C(Cl)(Cl)Cl
- XC50: 373 nM

SMILES: Cc1ccc(-c2cc(C(=O)Nc3ccc(S(=O)(=O)N4CCCCC4C)cc3)n[nH]2)c(O)c1 (stereo not drawn)
- XC50: 1080 nM

SMILES: CCOc1cc(C)ccc1C1CCN(CCCCNC(=O)c2cnc(-c3ccc(C(F)(F)F)cc3)[nH]2)CC1
- XC50: 771 nM

SMILES: O=C(/C=C/c1ccc(Cl)cc1)NCCCCCN1CCCN(C(=O)Nc2ccc(Cl)c(C(F)(F)F)c2)CC1
- XC50: 910 nM

SMILES: Cc1cc2c(cc1C(F)(F)F)N(C(=O)Nc1cc(C(=O)NC3CCN(Cc4ccccc4)C3)cc(C(F)(F)F)c1)CC2 (stereo not drawn)
- XC50: 339 nM

SMILES: COc1ccc2ncc(F)c(CCN3CCC(CNC(=O)C(=O)c4c[nH]c5ccccc45)CC3)c2n1
- XC50: 389 nM

SMILES: O=C(Cc1ccccn1)Nc1cccc(-c2cccc(-c3nc4cc(C(F)(F)F)ccc4[nH]3)c2)c1
- XC50: 610 nM

SMILES: C=CCOC(=O)N1CCC(CNCc2ccc(-c3ccc(-c4nc5ccccc5[nH]4)s3)cc2)C1 (stereo not drawn)
- XC50: 229 nM

SMILES: CCOC(=O)CCCc1cc(NC2CCN(C)CC2)nc(Nc2ccc(OC)cc2)n1
- XC50: 704 nM

SMILES: CCCCOC(=O)c1ccc(Nc2cc(C)nc3ccc(OC)cc23)cc1
- XC50: 640 nM

SMILES: O=C(Nc1nc(-c2ccccn2)cs1)c1ccc(Br)s1
- XC50: 1060 nM

SMILES: CC(C)c1ccc(CN2CCCCC(NC(=O)c3cc(-c4ccccc4F)cs3)C2)cc1 (stereo not drawn)
- XC50: 672 nM

SMILES: COc1cccc(CCc2cccc(CNC(C)=O)c2)c1
- XC50: 1040 nM

SMILES: O=C(NCc1cccc(OC(F)(F)F)c1)c1cnc2c(c1)nc(-c1c[nH]c(-c3ccccc3)n1)n2CCc1c[nH]cn1
- XC50: 683 nM

SMILES: N#Cc1ccc(N/C(=N\c2ccc(-c3ccccc3)cc2)NC2CCCc3ccccc32)c(O)c1 (stereo not drawn)
- XC50: 776 nM

SMILES: Cc1cc(=NN=Cc2cccc(Cl)c2)c2cc(F)ccc2[nH]1
- XC50: 759 nM

SMILES: COc1ccc(C(=O)C2CC2CN(C)CCC(O)c2ccc(Cl)c(Cl)c2)cc1 (stereo not drawn)
- XC50: 873 nM

SMILES: CN(c1ccccc1)S(=O)(=O)c1cccc(NC(=O)c2ccc(-n3ccnc3)c([N+](=O)[O-])c2)c1
- XC50: 1130 nM

SMILES: Cc1ccc(CN2CCN(Cc3cccc(NC(=O)c4cccs4)c3)CC2)cc1C
- XC50: 1030 nM

SMILES: Cc1cc(N[C@@H](Cc2ccccc2)C(=O)NCc2cccc(F)c2)nc(NCCCOC(C)C)n1
- XC50: 920 nM

SMILES: CCNc1cc(C(=O)N[C@@H](Cc2ccccc2)[C@H](O)CNC2(CCC(C)C)CC2)cc(N2CCCCS2(=O)=O)c1
- XC50: 1080 nM

SMILES: CCN(CC)CCn1c2ccccc2c2ccc(C(=O)Nc3ccc4sc(C)nc4c3)cc21
- XC50: 1060 nM

SMILES: C=C(C)Cn1cc(C2CCN(CCCCNC(=O)c3sc(-c4ccc(Cl)cc4Cl)nc3CO)CC2)c2ccccc21
- XC50: 1150 nM

SMILES: CN(C)CCOc1cc(NC(=O)Nc2ccc(Oc3ccccc3)cc2)ccc1I
- XC50: 890 nM

SMILES: CC(C)C(=O)NC(c1ccc(Cl)cc1)c1ccc2cccnc2c1O (stereo not drawn)
- XC50: 873 nM

SMILES: CC(Oc1c(C2CCN(CCCCNC(=O)c3ccc(-c4ccc(Cl)cc4)cc3)CC2)ccc2c1CCCC2)C(N)=O (stereo not drawn)
- XC50: 948 nM

SMILES: O=C(/C=C/c1ccc(Cl)c(Cl)c1)NCCCCCN1CCCC(CNS(=O)(=O)c2cccc(C(F)(F)F)c2)C1 (stereo not drawn)
- XC50: 950 nM

SMILES: CC(=O)N(Cc1cccc(-c2ccc(CNCCc3ccccc3)cc2)c1)C1CCN(Cc2ccccc2)CC1
- XC50: 691 nM

SMILES: COc1ccc(-c2nc(NC(=O)CS(=O)(=O)c3ccc(OC)cc3)sc2C)cc1
- XC50: 302 nM

SMILES: N#CN1CC[C@@H](NS(=O)(=O)Cc2ccc(Cl)c(Cl)c2)C1
- XC50: 532 nM

SMILES: O=C(Nc1cccc(-c2cccc(-c3nc4cc(C(F)(F)F)ccc4[nH]3)c2)c1)c1ccoc1
- XC50: 277 nM

SMILES: O=C1OC2(CN1CC1CCN(Cc3ccc(O)c(Cl)c3)CC1)c1ccccc1-c1ccccc12
- XC50: 756 nM

SMILES: CCOc1cc2ncnc(Nc3ccc(OCc4ccccc4Br)c(OC)c3)c2cc1OCC
- XC50: 467 nM

SMILES: CNCc1ccc2nc(-c3coc(Cc4cc(Cl)ccc4OCC(C)C)n3)[nH]c2c1
- XC50: 838 nM

SMILES: CCN(c1ccccc1)S(=O)(=O)c1ccc(OC)c(NC(=O)c2cccc(C(F)(F)F)c2)c1
- XC50: 881 nM

SMILES: COc1ccc(CCNCCCCCCNCCCc2ccc(Cl)cc2)cc1OC
- XC50: 951 nM

SMILES: CC(C)C[C@@H](/C=N/N1CCNC1=O)NC(=O)[C@H](CC(C)C)NC(=O)c1ccc(OCCN2CCOCC2)cc1
- XC50: 190 nM

SMILES: Cc1cc(NCCC(=O)Nc2ccccc2)nc(NCCc2ccc(F)cc2)n1
- XC50: 1130 nM

SMILES: CC[C@H](C)CNC(=O)c1cccc(-c2cccc(CNCC3CNCCCO3)c2)n1 (stereo partly drawn)
- XC50: 1080 nM

SMILES: CC(=O)c1cccc(NC(=O)C2c3ccccc3C(=O)N(CC(C)C)C2c2cccs2)c1 (stereo not drawn)
- XC50: 590 nM

SMILES: O=[N+]([O-])c1cccc(-n2nc(NCc3ccc(Cl)cc3)nc2-c2ccc(F)c(C(F)(F)F)c2)c1
- XC50: 243 nM

SMILES: Cc1cc(C(=O)NC2CCN(CC3(c4ccccc4)CCCCC3)CC2)on1
- XC50: 258 nM

SMILES: Cc1cc(N[C@@H](CC(C)C)C(=O)Nc2ccccc2)nc(NCCc2ccc(F)cc2)n1
- XC50: 1090 nM

SMILES: Cc1nc(-c2nc(NCCc3cnccn3)ncc2-c2ccsc2)sc1C
- XC50: 881 nM

SMILES: N#CC(c1ccc(Cl)cc1)c1ccc2c(C(F)(F)F)cc(C(F)(F)F)nc2n1 (stereo not drawn)
- XC50: 1010 nM

SMILES: Cc1cc2c(NC(=O)NC3CCN(CCc4ccccc4Cl)CC3)cccc2cn1
- XC50: 387 nM

SMILES: Cc1[nH]c(C)c(-c2ccc(-c3ccc(C#N)cc3)nc2)c(=O)c1Br
- XC50: 981 nM

SMILES: CC(C)(C)c1ccc(CN2CCCCC(NC(=O)c3cc(-c4ccccc4F)cs3)C2)cc1 (stereo not drawn)
- XC50: 267 nM

SMILES: O=C(CC(=O)Nc1cc(Cl)cc(Cl)c1)Nc1cc(Cl)cc(Cl)c1
- XC50: 159 nM
